Laboratory results taken from the NIST ThermoML archive (doi:10.1021/acs.jced.8b00662).

Test: xn = mol fraction of the nth substance listed
Conditions: 100 kPa, Liquid; for viscosity: Falling or rolling sphere viscometry; for mass density: Vibrating tube method

CC(C)C1CCCCC1 [(1-methylethyl)cyclohexane] + OCC1CC1
Conditions | mass density [kg/m3] | viscosity [mPa·s]
293.15 K, x1 = 0.0996 | 891.76 | –
293.15 K, x1 = 0.1003 | – | 3.277
293.15 K, x1 = 0.1991 | 874.27 | 2.592
293.15 K, x1 = 0.2995 | 859.61 | 2.18
293.15 K, x1 = 0.3996 | 847.35 | 1.862
293.15 K, x1 = 0.4993 | 836.86 | 1.621
293.15 K, x1 = 0.5997 | 827.69 | –
293.15 K, x1 = 0.619 | – | 1.406
293.15 K, x1 = 0.7011 | 819.71 | 1.288
293.15 K, x1 = 0.7967 | 812.9 | 1.192
293.15 K, x1 = 0.9026 | 806.51 | 1.115
293.15 K, x1 = 1 | 802.14 | 1.093
298.15 K, x1 = 0.0996 | 887.68 | –
298.15 K, x1 = 0.1003 | – | 2.876
298.15 K, x1 = 0.1991 | 870.17 | 2.286
298.15 K, x1 = 0.2995 | 855.52 | 1.937
298.15 K, x1 = 0.3996 | 843.25 | 1.668
298.15 K, x1 = 0.4993 | 832.77 | 1.463
298.15 K, x1 = 0.5997 | 823.61 | –
298.15 K, x1 = 0.619 | – | 1.281
298.15 K, x1 = 0.7011 | 815.65 | 1.18
298.15 K, x1 = 0.7967 | 808.85 | 1.099
298.15 K, x1 = 0.9026 | 802.52 | 1.033
298.15 K, x1 = 1 | 798.24 | 1.016
303.15 K, x1 = 0.0996 | 883.58 | –
303.15 K, x1 = 0.1003 | – | 2.523
303.15 K, x1 = 0.1991 | 866.05 | 2.028
303.15 K, x1 = 0.2995 | 851.39 | 1.729
303.15 K, x1 = 0.3996 | 839.12 | 1.499
303.15 K, x1 = 0.4993 | 828.64 | 1.325
303.15 K, x1 = 0.5997 | 819.5 | –
303.15 K, x1 = 0.619 | – | 1.17
303.15 K, x1 = 0.7011 | 811.56 | 1.085
303.15 K, x1 = 0.7967 | 804.8 | 1.015
303.15 K, x1 = 0.9026 | 798.52 | 0.958
303.15 K, x1 = 1 | 794.34 | 0.947
308.15 K, x1 = 0.0996 | 879.43 | –
308.15 K, x1 = 0.1003 | – | 2.227
308.15 K, x1 = 0.1991 | 861.89 | 1.807
308.15 K, x1 = 0.2995 | 847.23 | 1.551
308.15 K, x1 = 0.3996 | 834.96 | 1.356
308.15 K, x1 = 0.4993 | 824.49 | 1.207
308.15 K, x1 = 0.5997 | 815.37 | –
308.15 K, x1 = 0.619 | – | 1.075
308.15 K, x1 = 0.7011 | 807.46 | 1.001
308.15 K, x1 = 0.7967 | 800.75 | 0.941
308.15 K, x1 = 0.9026 | 794.49 | 0.893
308.15 K, x1 = 1 | 790.43 | 0.886
313.15 K, x1 = 0.0996 | 875.25 | –
313.15 K, x1 = 0.1003 | – | 1.912
313.15 K, x1 = 0.1991 | 857.7 | 1.617
313.15 K, x1 = 0.2995 | 843.04 | 1.399
313.15 K, x1 = 0.3996 | 830.77 | 1.231
313.15 K, x1 = 0.4993 | 820.31 | 1.103
313.15 K, x1 = 0.5997 | 811.21 | –
313.15 K, x1 = 0.619 | – | 0.99
313.15 K, x1 = 0.7011 | 803.33 | 0.927
313.15 K, x1 = 0.7967 | 796.66 | 0.876
313.15 K, x1 = 0.9026 | 790.46 | 0.834
313.15 K, x1 = 1 | 786.51 | 0.831
318.15 K, x1 = 0.1003 | – | 1.706
318.15 K, x1 = 0.1991 | – | 1.454
318.15 K, x1 = 0.2995 | – | 1.266
318.15 K, x1 = 0.3996 | – | 1.121
318.15 K, x1 = 0.4993 | – | 1.012
318.15 K, x1 = 0.619 | – | 0.916
318.15 K, x1 = 0.7011 | – | 0.861
318.15 K, x1 = 0.7967 | – | 0.817
318.15 K, x1 = 0.9026 | – | 0.782
318.15 K, x1 = 1 | – | 0.782
